Measurements reported in patent US20070060605A1, “Compositions and methods for inhibiting platelet activation and thrombosis” (priority 2001, published 2007).

Legend:
[1] = tested on: PGE1-induced cAMP levels in platelets; assay: Augmentation of PGE1-induced cAMP levels in platelets; format: cell-based, human; settings: no single concentration
Protocol: One frequent target of anti-platelet agents is phosphodiesterase III (PDE III). […] The assay is performed as described by Liao et al., 1998, Eur J Pharmacol 349,107-114, incorporated herein by reference. Briefly, aliquots of PRP are exposed to increasing concentrations of the agent for 20 minutes. The PRP is then challenged with 1 μM PGE1 for 2 min The reaction is stopped by adding 10 mM EDTA, followed immediately by boiling for 2 min. The mixture is cooled to 4° C. and the precipitated protein is pelleted. cAMP content in the supernatant is quantitated using an enzyme immunoassay kit (Pharmacia-Amersham, N.J.) according to the instructions of the manufacturer.
In order to assess whether the compounds useful according to the invention might act through inhibition phosphodiesterase III, each was tested for its effect on PGE1-induced cAMP increase. Determination of platelet cAMP levels was performed as described by Liao et al., 1998, supra. Aliquots of PRP were exposed to increasing concentrations of the indicated compounds for 20 min. PRP was then challenged with 1 μM PGE1 for 2 min. The reaction was stopped with the addition of 10 mM EDTA followed immediately by boiling for 2 min. The mixture was then cooled to 4° C. and the precipitated protein was pelleted. Cyclic AMP content in the supernatant was then quantified using an enzyme immunoassay kit (Pharmacia-Amersham, N.J.) according to the instructions of the manufacturer.

human platelet PDE5 = molecular target: T1, human platelet PDE5 (Homo sapiens, UniProt O76074); assay: Phosphodiesterase inhibition, PDE5; format: biochemical; settings: up to 1 μM
T1 construct: human platelet PDE5; from tissue; host or cells: human platelets
Protocol: Intracellular cAMP generated by adenylyl cyclase in platelets is actively hydrolyzed by phosphodiesterase. […] Human platelets express PDE2, PDE3, and PDE5. Therefore, the compound was tested for its inhibitory effect on these phosphodiesterases using methods as described in Example 3.

[2] = tested on: platelet protein palmitoylation; assay: Incorporation of [3H]-palmitate into platelet proteins; format: cell-based; settings: 100 μM compound; 20 μM or 200 μM SFLLRN
Protocol: Platelets were labeled with [^3H]-palmitate for 2 hours in the absence (lanes 1, 2, and 3) or presence (lanes 4, 5, and 6) of 100 μM JF081204{5C} for 2 hours. Labeled platelets were then incubated with 0 μM ([…]), 20 μM (lanes 2 and 5), or 200 μM SFLLRN (lanes 3 and 6). Platelet samples were lysed, separated by SDS-PAGE, Western blotted, and visualized with a tritium imager screen (Panel a). The activation of platelets by SFLLRN led to an increase incorporation of [^3H]-palmitate into platelet proteins, whereas the presence of JF081204{5C} inhibited this activation-dependent [^3H]-palmitate incorporation (Panel b). Western blot membrane from panel (a) was stained with Ponceau S to visualize proteins in the platelet lysates.
The incorporation of [^3H]-palmitate into platelet intracellular proteins was examined to determine the effect of JF081204{5C} on platelet protein palmitoylation. […] Exposure of platelets to either 20 μM or 200 μM SFLLRN increased the intensity of the labeling. Incubation of platelets with 100 μM of JF081204{5C} inhibited the increase in [^3H]-palmitate incorporation induced by either 20 μM or 200 μM SFLLRN.

[3] = listed as Pyridazinone compound

Row | SMILES | Effect on PGE1-stimulated cAMP levels in platelets [1] | Effect on PGE1-stimulated cAMP levels in platelets [1, 3] | Inhibition of human platelet PDE5 (human platelet PDE5; [3]) | Inhibition of human platelet PDE5 (human platelet PDE5; listed as pyridazinone compound) | Increase in [3H]-palmitate incorporation induced by SFLLRN [2]
1 | CC1CC(=O)NN=C1c1ccc(N)c([N+](=O)[O-])c1 (centres unmarked) [6-(4-Amino-3-nitro-phenyl)-5-methyl-4,5-dihydro-2H-pyridazin-3-one] | augments | augment | No significant inhibition | little inhibition | –
2 | CCCCCn1c2c(c(=N)c3ccccc31)CCC2 [JF081204{5C}] | – | – | – | – | inhibited
